Test results taken from US20080319042A1, “Compositions and methods for treatment of liver disease” (priority 2007, published 2008).
pIC50: −log10 of the molar value.

How the values were obtained:
[1] = test system: HCV JFH1; assay: HCV JFH1 infectivity assay (JFH1 Foci Reduction Assay); assay type: cell-based, hepatitis C virus; conditions: virus preincubated with compound; Huh 7 cells; 48 hr post infection; RD8, RD16, RD17, RD18 as glucosidase hydrolysis products
[2] = test system: influenza; assay: influenza virus entry assay; assay type: cell-based; set-up: dose or concentration left out as unconfirmed; conditions: FIG. 4
[3] = test system: HCV/HIV pseudovirions; assay: microbe, parasite or virus in culture; assay type: cell-based, hepatitis C virus; conditions: for inhibition of HCV/HIV entry: 100 μg/mL
[4] = test system: HBeAg; assay: Anti-HBSAg Assay (Procedure B), HBeAg; assay type: cell-based, hepatitis B virus; set-up: HBeAg Ave: unit not given here

COC(=O)C1=COC(O)C2C1C(O)C(O)C2(C)O (mixture of isomers) [lamiridosin]
Estimated IC50 (inhibition of HCV JFH1 infectivity) [1]: 20 µg/mL
activity against influenza virus entry [2]: inactive
Exp2 (% Inhib) ([3]; 1 ug/mL): 56.6%
Trial 1 (% Inhib) ([3]; 1 ug/mL): 70.1%
Exp2 (% Inhib) ([3]; 5 ug/mL): 68.4%
Trial 1 (% Inhib) ([3]; 5 ug/mL): 81.2%
Exp2 (% Inhib) ([3]; 10 ug/mL): 81.8%
Trial 1 (% Inhib) ([3]; 10 ug/mL): 86.8%
Exp2 (% Inhib) ([3]; 50 ug/mL): 96.7%
Trial 1 (% Inhib) ([3]; 50 ug/mL): 96.1%
Exp2 (% Inhib) ([3]; 100 ug/mL): 99.5%
Trial 1 (% Inhib) ([3]; 100 ug/mL): 99.5%
inhibition of HCV/HIV entry ([3]; FIG. 1): approximately 80%
inhibition of HCV/HIV entry ([3]; FIG. 1, listed as Lamiridosin): ca. 85%
anti-hepatitis C virus activity (in words) ([3]; FIG. 1): did block HCV viral entry
IC50 in the anti-HCV assay (HCV viral entry) ([3]; FIG. 2): 0.6 µg/mL
pIC50 ([3]; FIG. 2, read-out: IC50 in the anti-HCV assay (HCV viral entry)): 5.64
Imax in the anti-HCV assay ([3]; FIG. 2 fit): 93.9±3.5%
HBeAg Ave ([4]; 9.375 μg/mL): 1.327
HBeAg Inhibition % ([4]; 9.375 μg/mL): 2.7%
HBeAg OD1 ([4]; 9.375 μg/mL): 1.455
HBeAg OD2 ([4]; 9.375 μg/mL): 1.416
HBeAg OD3 ([4]; 9.375 μg/mL): 1.109
HBeAg Ave ([4]; 18.75 μg/mL): 1.244
HBeAg Inhibition % ([4]; 18.75 μg/mL): 8.5%
HBeAg OD1 ([4]; 18.75 μg/mL): 1.151
HBeAg OD2 ([4]; 18.75 μg/mL): 1.171
HBeAg OD3 ([4]; 18.75 μg/mL): 1.410
HBeAg Ave ([4]; 37.5 μg/mL): 1.195
HBeAg Inhibition % ([4]; 37.5 μg/mL): 12.1%
HBeAg OD1 ([4]; 37.5 μg/mL): 1.073
HBeAg OD2 ([4]; 37.5 μg/mL): 1.275
HBeAg OD3 ([4]; 37.5 μg/mL): 1.238
